Measurements: patent US12077503B2, “Substituted cyclic amides and their use as herbicides” (FMC CORPORATION, priority 2015, dated 2024)

Assays:
Assay type in all cases: in vivo
[1] = test system: ryegrass, Italian (Italian ryegrass, Lolium multiflorum); experiment: Test A postemergence; details: Lolium multiflorum, post-emergence, 240 h
Procedure, shortened: (§1)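 Visual injury scores from 0, no effect, to 100, complete control, were assigned versus untreated controls roughly 10 d after treatment in the greenhouse. Test chemicals, formulated with surfactant in a non-phytotoxic solvent, were applied to planted seeds as a preemergence soil spray or postemergence to one- to two-leaf plants 2 to 10 cm tall, in loam–sand soil.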

[2] = test system: pigweed (Amaranthus retroflexus); experiment: Test A postemergence; details: Amaranthus retroflexus, post-emergence, 240 h
Procedure, shortened: as §1

[3] = test system: corn (Zea mays); experiment: Test A postemergence; details: Zea mays, post-emergence, 240 h
Procedure, shortened: as §1

[4] = test system: wheat (Triticum aestivum); experiment: Test A postemergence; details: Triticum aestivum, post-emergence, 240 h
Procedure, shortened: as §1

[5] = test system: Kochia (Kochia scoparia); experiment: Test A postemergence; details: Bassia scoparia, post-emergence, 240 h
Procedure, shortened: as §1

[6] = test system: blackgrass (Alopecurus myosuroides); experiment: Test A postemergence; details: Alopecurus myosuroides, post-emergence, 240 h
Procedure, shortened: as §1

[7] = test system: Galium (catchweed bedstraw, Galium aparine); experiment: Test A postemergence; details: Galium, post-emergence, 240 h
Procedure, shortened: as §1

[8] = test system: ragweed (common ragweed, Ambrosia elatior); experiment: Test A postemergence; details: Ambrosia artemisiifolia, post-emergence, 240 h
Procedure, shortened: as §1

[9] = test system: barnyardgrass (Echinochloa crus-galli); experiment: Test A postemergence; details: Echinochloa crus-galli, post-emergence, 240 h
Procedure, shortened: as §1

[10] = test system: giant foxtail (Setaria faberii); experiment: Test A postemergence; details: Setaria faberi, post-emergence, 240 h
Procedure, shortened: as §1

[11] = test system: ryegrass, Italian (Italian ryegrass, Lolium multiflorum); experiment: Test A preemergence; details: Lolium multiflorum, pre-emergence, 240 h, preemergence, 0 to 100 scale where 0 is no effect and 100 is complete control, read-out: Ryegrass, Italian plant response rating
Procedure, shortened: as §1

[12] = test system: pigweed (Amaranthus retroflexus); experiment: Test A preemergence; details: Amaranthus retroflexus, pre-emergence, 240 h, preemergence, 0 to 100 scale where 0 is no effect and 100 is complete control, read-out: Pigweed plant response rating
[13] = test system: Kochia (Kochia scoparia); experiment: Test A preemergence; details: Bassia scoparia, pre-emergence, 240 h, preemergence, 0 to 100 scale where 0 is no effect and 100 is complete control, read-out: Kochia plant response rating
Procedure, shortened: as §1

[14] = test system: ragweed (common ragweed, Ambrosia elatior); experiment: Test A preemergence; details: Ambrosia artemisiifolia, pre-emergence, 240 h, preemergence, 0 to 100 scale where 0 is no effect and 100 is complete control, read-out: Ragweed plant response rating
Procedure, shortened: as §1

[15] = test system: barnyardgrass (Echinochloa crus-galli); experiment: Test A preemergence; details: Echinochloa crus-galli, pre-emergence, 240 h, preemergence, 0 to 100 scale where 0 is no effect and 100 is complete control, read-out: Barnyardgrass plant response rating
Procedure, shortened: as §1

[16] = test system: giant foxtail (Setaria faberii); experiment: Test A preemergence; details: Setaria faberi, pre-emergence, 240 h, preemergence, 0 to 100 scale where 0 is no effect and 100 is complete control, read-out: Foxtail, Giant plant response rating
Procedure, shortened: as §1

[17] = 125 g ai/ha, visual injury rating, approximately 10 d

Q: Which pest or weed control at 125 g/ha ([1]; 125 g ai/ha, postemergence, visual injury vs untreated controls after approx. 10 d, 0 = no effect, 100 = complete control, read-out: Ryegrass, Italian plant response rating (0 to 100 scale)) does the source give for `Cc1cc([C@H]2CNC(=O)[C@@H]2C(=O)Nc2ccccc2S(C)(=O)=O)ccc1Cl` [Compound 1246] here?
A: Its pest or weed control at 125 g/ha is 0%.

Q: And the pest or weed control at 500 g/ha ([1]; Postemergence, 500 g ai/ha, visual injury, 0 to 100 scale (0 no effect, 100 complete control), approx. 10 d, read-out: Plant response rating, Ryegrass, Italian)?
A: Its pest or weed control at 500 g/ha is 0%.

Q: What about the pest or weed control at 125 g/ha ([2]; 125 g ai/ha, postemergence, visual injury vs untreated controls after approx. 10 d, 0 = no effect, 100 = complete control, read-out: Pigweed plant response rating (0 to 100 scale)) of the same compound?
A: Its pest or weed control at 125 g/ha is 0%.

Q: And the pest or weed control at 500 g/ha ([2]; Postemergence, 500 g ai/ha, visual injury, 0 to 100 scale (0 no effect, 100 complete control), approx. 10 d, read-out: Plant response rating, Pigweed)?
A: The pest or weed control at 500 g/ha was 20%.

Q: What about the plant injury at 125 g/ha ([3]; 125 g ai/ha, postemergence, visual injury vs untreated controls after approx. 10 d, 0 = no effect, 100 = complete control, read-out: Corn plant response rating (0 to 100 scale)) of the same compound?
A: Its plant injury at 125 g/ha is 0%.

Q: What about the Corn plant response rating (crop injury, 0 = no effect, 100 = complete kill) at 500 g/ha ([3]; Postemergence, 500 g ai/ha, visual injury, 0 to 100 scale (0 no effect, 100 complete control), approx. 10 d) of the same compound?
A: The Corn plant response rating (crop injury, 0 = no effect, 100 = complete kill) at 500 g/ha was 40%.

Q: And the plant injury at 125 g/ha ([4]; 125 g ai/ha, postemergence, visual injury vs untreated controls after approx. 10 d, 0 = no effect, 100 = complete control, read-out: Wheat plant response rating (0 to 100 scale))?
A: The plant injury at 125 g/ha was 0%.

Q: What about the plant injury at 500 g/ha ([4]; Postemergence, 500 g ai/ha, visual injury, 0 to 100 scale (0 no effect, 100 complete control), approx. 10 d, read-out: Plant response rating, Wheat) of the same compound?
A: The plant injury at 500 g/ha was 40%.

Q: And the pest or weed control at 125 g/ha ([5]; 125 g ai/ha, postemergence, visual injury vs untreated controls after approx. 10 d, 0 = no effect, 100 = complete control, read-out: Kochia plant response rating (0 to 100 scale))?
A: The pest or weed control at 125 g/ha was 0%.

Q: And the pest or weed control at 500 g/ha ([5]; Postemergence, 500 g ai/ha, visual injury, 0 to 100 scale (0 no effect, 100 complete control), approx. 10 d, read-out: Plant response rating, Kochia)?
A: Its pest or weed control at 500 g/ha is 20%.

Q: What about the pest or weed control at 125 g/ha ([6]; 125 g ai/ha, postemergence, visual injury vs untreated controls after approx. 10 d, 0 = no effect, 100 = complete control, read-out: Blackgrass plant response rating (0 to 100 scale)) of the same compound?
A: The pest or weed control at 125 g/ha was 0%.

Q: And the pest or weed control at 500 g/ha ([6]; Postemergence, 500 g ai/ha, visual injury, 0 to 100 scale (0 no effect, 100 complete control), approx. 10 d, read-out: Plant response rating, Blackgrass)?
A: Its pest or weed control at 500 g/ha is 40%.

Q: And the pest or weed control at 125 g/ha ([7]; 125 g ai/ha, postemergence, visual injury vs untreated controls after approx. 10 d, 0 = no effect, 100 = complete control, read-out: Galium plant response rating (0 to 100 scale))?
A: The pest or weed control at 125 g/ha was 50%.

Q: What about the pest or weed control at 500 g/ha ([7]; Postemergence, 500 g ai/ha, visual injury, 0 to 100 scale (0 no effect, 100 complete control), approx. 10 d, read-out: Plant response rating, Galium) of the same compound?
A: Its pest or weed control at 500 g/ha is 60%.

Q: And the pest or weed control at 125 g/ha ([8]; 125 g ai/ha, postemergence, visual injury vs untreated controls after approx. 10 d, 0 = no effect, 100 = complete control, read-out: Ragweed plant response rating (0 to 100 scale))?
A: The pest or weed control at 125 g/ha was 10%.

Q: And the pest or weed control at 500 g/ha ([8]; Postemergence, 500 g ai/ha, visual injury, 0 to 100 scale (0 no effect, 100 complete control), approx. 10 d, read-out: Plant response rating, Ragweed)?
A: The pest or weed control at 500 g/ha was 60%.

Q: And the pest or weed control at 125 g/ha ([9]; 125 g ai/ha, postemergence, visual injury vs untreated controls after approx. 10 d, 0 = no effect, 100 = complete control, read-out: Barnyardgrass plant response rating (0 to 100 scale))?
A: Its pest or weed control at 125 g/ha is 50%.

Q: What about the pest or weed control at 500 g/ha ([9]; Postemergence, 500 g ai/ha, visual injury, 0 to 100 scale (0 no effect, 100 complete control), approx. 10 d, read-out: Plant response rating, Barnyardgrass) of the same compound?
A: The pest or weed control at 500 g/ha was 80%.

Q: What about the pest or weed control at 125 g/ha ([10]; 125 g ai/ha, postemergence, visual injury vs untreated controls after approx. 10 d, 0 = no effect, 100 = complete control, read-out: Foxtail, Giant plant response rating (0 to 100 scale)) of the same compound?
A: Its pest or weed control at 125 g/ha is 20%.

Q: What about the pest or weed control at 500 g/ha ([10]; Postemergence, 500 g ai/ha, visual injury, 0 to 100 scale (0 no effect, 100 complete control), approx. 10 d, read-out: Plant response rating, Foxtail, Giant) of the same compound?
A: Its pest or weed control at 500 g/ha is 20%.

Q: And the pest or weed control at 125 g/ha [11, 17]?
A: The pest or weed control at 125 g/ha was 0%.

Q: And the pest or weed control at 500 g/ha ([11]; 500 g ai/ha)?
A: The pest or weed control at 500 g/ha was 50%.

Q: What about the pest or weed control at 125 g/ha [12, 17] of the same compound?
A: Its pest or weed control at 125 g/ha is 0%.

Q: What about the pest or weed control at 500 g/ha ([12]; 500 g ai/ha) of the same compound?
A: The pest or weed control at 500 g/ha was 0%.

Q: And the pest or weed control at 125 g/ha [13, 17]?
A: The pest or weed control at 125 g/ha was 60%.

Q: What about the pest or weed control at 500 g/ha ([13]; 500 g ai/ha) of the same compound?
A: Its pest or weed control at 500 g/ha is 80%.

Q: And the pest or weed control at 125 g/ha [14, 17]?
A: Its pest or weed control at 125 g/ha is 40%.

Q: And the pest or weed control at 500 g/ha ([14]; 500 g ai/ha)?
A: The pest or weed control at 500 g/ha was 60%.

Q: What about the pest or weed control at 125 g/ha [15, 17] of the same compound?
A: The pest or weed control at 125 g/ha was 60%.

Q: And the pest or weed control at 500 g/ha ([15]; 500 g ai/ha)?
A: Its pest or weed control at 500 g/ha is 80%.

Q: What about the pest or weed control at 125 g/ha [16, 17] of the same compound?
A: Its pest or weed control at 125 g/ha is 50%.

Q: What about the pest or weed control at 500 g/ha ([16]; 500 g ai/ha) of the same compound?
A: Its pest or weed control at 500 g/ha is 70%.
